“Also recorded” adds a separate entry of the source.
How the values were obtained:
[1] = tested on: full-thickness burn wound; experiment: full-thickness burn wound model in mice, gross morphology and re-epithelialisation; assay type: in vivo, C57/B16 mice
Method: 8 week old C57/B16 mice were purchased from the Animal Resource Center, Murdoch University, Western Australia and used for all experiments. All experiments were approved by the necessary institutional animal ethics committees and were performed in accordance with the National Health and Medical Research Council (NHMRC) Australian Code of Practice for the Care and Use of Animals for Scientific Purposes.
(§1) A full-thickness burn wound was generated in a murine subject using a modified protocol based on a model previously described (Bruen et al., J Surg Res, 120: 12-20, 2004). Briefly, mice (n=34) were anesthetised (xylazine (10 mg/kg) and ketamine (100 mg/kg)) and subsequently given a full-thickness 10 mm diameter burn by contact with a brass rod (65 g) heated to 95° C. and applied for 9 seconds. 10 control animals were sacrificed post-burn, and histology confirmed all burns were full-thickness. The remaining animals (n=24) were re-hydrated and given analgesics subcutaneously immediately post-burn. The wounds were then dressed using a Tegapore™ membrane dressing (3M Healthcare Ltd) and either phosphate buffered saline (PBS) or PBS containing 20 μM peptide were instilled into the Tegapore™ and administered topically. The mice were then wrapped with a secondary absorbent dressing with minimal pressure so as not to constrict breathing and to allow free movement of the animal after recovery. Ten minutes post-injury, dressings were removed and animals allowed to recover from anesthesia in their cages with feed and water provided ad libitum.
Wounds were harvested on post-injury days 1, 3, 7 and 11 (n=3 for each time-point for both treated and control groups). Each wound was bisected along the cranial-caudal axis and one half of the tissue fixed in 4% paraformaldehyde solution and the other half stored as frozen tissue. Haematoxylin and Eosin stained sections were used to determine the quality of wound healing.
Progress of re-epithelialisation was quantitated by measuring distance between leading epithelial edges using an eye-piece graticule on histological slides. Difference between treated and control wounds was analysed using standard two-tail t-TEST for two-samples assuming unequal variance. p<0.05 is defined as the level of statistical significance.

[2] = tested on: apoptosing epidermal cells surrounding the burn injury; experiment: TUNEL assay on burn wound tissue sections; assay type: in vivo, C57/B16 mice; conditions: one day after burning
Method: as §1, with “Ten minutes post-injury, dressings were removed and animals allowed to recover from anesthesia in their cages with feed and water provided ad libitum.” left out
Tissue sections were labelled using TUNEL (Tdt-mediated dUTP Nick End Labelling) assay as previously described 13. […] Intensity of TUNEL staining was quantitated using Image J software (available from The National Institutes of Health, USA). Intensity of staining of individual nuclei were measured and normalised against the background. […]

[3] = tested on: HaCaT keratinocytes; experiment: MTT colorimetric proliferation assay, keratinocytes; assay type: cell-based; conditions: 100 nm, 1 μM or 10 μM, 24, 48 or 72 hours
Method: (§2) Cultures of keratinocytes (HaCaT cells) or fibroblasts were cultured in a microwell plate the presence of a peptide analog comprising the amino acid sequence set forth in SEQ ID NO: 104 at a concentration of 100 nm, 1 μM or 10 μM. Following an incubation period 24 hours, 48 hours, or 72 hours, cells were incubated in the presence of MTT for a sufficient time for a mitochondrial dehydrogenase enzyme from viable cells to cleave the tetrazolium rings of the pale yellow MTT and form dark blue formazan crystals. Cells were then solubilized and the level of […] crystals determined using a microtitre plate reader at 492 nm.

[4] = tested on: fibroblast cells; experiment: MTT colorimetric proliferation assay, fibroblasts; assay type: cell-based; conditions: 100 nm, 1 μM or 10 μM, 24, 48 or 72 hours
Method: as §2

H-rerrsssqiGGsrisqyaGrrrqrrkkrG-NH2 [SEQ ID NO: 104]
gross morphology of wound ([1]; day 7 post-burn): Early reepithelialization is present and separation of the eschar evident | gap without epidermis (not re-epithelialized) ([1]; day 7 post-burn, 20 μM peptide in PBS topical): 2 mm | re-epithelialization of wound ([1]; day 11 post-burn, 20 μM peptide in PBS topical): re-epithelialized by day 11; also recorded: all the treated wounds are covered; also recorded: completely re-epithelialized | eschar diameter ([1]; day 11 post-burn, 20 μM peptide in PBS topically via Tegapore dressing for ten minutes): < 2 mm | scarring (de novo hair follicle morphogenesis) ([1]; day 11 post-burn, histology): scarring has not occurred | wound size between leading epidermal edges ([1]; within 24 hours post-injury, 20 μM peptide in PBS topical): 10 mm | TUNEL staining intensity vs control ([2]; 500 μm from the wound edge): marked difference in intensity | TUNEL positive staining in epidermis ([2]; 1500 μm from the wound edge): complete lack of positive staining | cellular proliferation (MTT) vs untreated cells [3]: increased cellular proliferation rates; also recorded: enhanced and/or induced proliferation | cellular proliferation (MTT) [4]: did not stimulate proliferation

Reference: patent US8946381B2, “Compositions and uses thereof for the treatment of wounds” (Phylogica Limited, priority 2006, dated 2015)
